Test results as given in patent US20170281779A1, “METHOD OF TREATING PATIENTS NON-RESPONSIVE TO PALONOSETRON” (Heron Therapeutics, Inc., priority 2013, published 2017).

Columns and labels:
[1] = test system: chemotherapy-induced nausea and vomiting (CINV); assay: Clinical study of complete response (absence of emetic episodes) in chemotherapy patients; Cycle 1 palonosetron, Cycle 2 granisetron semi-solid delivery vehicle; type: in vivo, human; details: Cycle 1, palonosetron 0.25 mg intravenous
Description: As described in Example 2, the patients in the study were undergoing either a moderately emetogenic chemotherapy regimen or a highly emetogenic chemotherapy regimen. In a first cycle of the study, the patients were treated with (i) 5 mg of granisetron in a semi-solid drug delivery vehicle, administered subcutaneously; (ii) 10 mg of granisetron in a semi-solid drug delivery vehicle, administered subcutaneously; or (iii) palonosetron, 0.25 mg administered intravenously. Patients who received palonosetron in Cycle 1 and remained on study were re-randomized for treatment with 5 mg or 10 mg of granisetron, administered as comprised within a semi-solid drug delivery vehicle via subcutaneous injection of 250 mg vehicle or 500 mg vehicle.
In Cycle 1 of the study, 1395 patients receiving single doses of a moderately emetogenic chemotherapy (MEC) regimen or a highly emetogenic chemotherapy (HEC) regimen were randomized for treatment with one of three regimens: a semi-solid drug delivery vehicle comprising granisetron, administered subcutaneously to provide (i) 5 mg granisetron or (ii) 10 mg granisetron (via subcutaneous injection of 250 mg or 500 mg vehicle, respectively) or (iii) palonosetron, 0.25 mg intravenous. The palonosetron dose administered was the recommended dose of palonosetron (ALOXI®) for treatment of chemotherapy-induced nausea and vomiting in adults. Palonosetron, when administered intravenously at the above-dose, is indicated in adults for the prevention of both acute and delayed vomiting associated with initial and repeated courses of moderately emetogenic chemotherapy, and acute nausea and vomiting associated with initial and repeat courses of highly emetogenic chemotherapy.
Patients who received palonosetron in Cycle 1 and remained in the study were re-randomized for treatment in Cycle 2 with 5 mg or 10 mg granisetron administered subcutaneously as 250 mg or 500 mg, respectively, of the semi-solid drug delivery vehicle. […]

5-HT3 receptors = target: T1, 5-HT3 receptors (Homo sapiens, UniProt P46098); details: compared to first generation 5-HT3 receptor antagonists dolasetron, granisetron and ondansetron; cited from earlier work
T1 sequence (P46098 24-478): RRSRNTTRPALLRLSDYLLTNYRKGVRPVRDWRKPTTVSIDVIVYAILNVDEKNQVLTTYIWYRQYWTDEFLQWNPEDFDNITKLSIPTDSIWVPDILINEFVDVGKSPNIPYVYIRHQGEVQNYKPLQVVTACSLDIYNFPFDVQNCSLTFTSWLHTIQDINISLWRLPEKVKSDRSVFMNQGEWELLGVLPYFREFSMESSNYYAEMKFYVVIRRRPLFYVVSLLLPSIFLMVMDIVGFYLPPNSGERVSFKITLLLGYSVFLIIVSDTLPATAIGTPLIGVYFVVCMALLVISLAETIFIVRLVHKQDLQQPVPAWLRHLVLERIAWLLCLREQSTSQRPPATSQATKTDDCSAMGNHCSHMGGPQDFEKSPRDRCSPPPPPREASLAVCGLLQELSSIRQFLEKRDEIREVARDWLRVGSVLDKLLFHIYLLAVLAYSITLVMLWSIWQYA

[2] = cited from earlier work
[3] = compared to first generation 5-HT3 receptor antagonists dolasetron, granisetron and ondansetron

O=C1c2cccc3c2[C@H](CCC3)CN1[C@@H]1CN2CCC1CC2 [palonosetron]
overall (0-120 hour) failures ([1]; HEC patients (94/238)): 39.5%
overall (0-120 hour) failures ([1]; MEC patients (100/208)): 48.1%
overall (0-120 hour) failures ([1]; all 446 patients (MEC + HEC)): 43.5%
binding affinity to the 5-HT3 receptors (5-HT3 receptors): higher binding affinity
safety profile ([2]; as reported in the literature (Eisenberg et al. 2004)): excellent safety profile
half-life [2, 3]: significantly longer half-life
potency [2, 3]: higher potency
